From the supplement of paper PMC10307832

Columns and labels:
Test in all cases: relative viability (nuclei count vs DMSO), 5 days (fraction); higher = more cells survive
[1] = test system: NCI-H522
Method in brief: (§1)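 A single step with final 0.05% Triton X-100, 1% formaldehyde and 1 ug/ml Hoechst fixed the cells and stained nuclei 5 days after treatment. Lung cancer cell lines in 1536-well plates had been treated by pin tool the day after seeding with one drug alone or a fixed anchor-drug dose plus five library-drug doses (not always all listed) in √10 steps, and nuclei were counted on 4× images. Relative viability is the ratio of nuclei in treated wells to nuclei in vehicle wells, taken as the median of duplicate plates.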

[2] = test system: LCLC-103H
Method in brief: as §1

[3] = test system: NCI-H727
Method in brief: as §1

[4] = test system: SK-MES-1
Method in brief: as §1

[5] = test system: NCI-H1355
Method in brief: as §1

[6] = test system: NCI-H1915
Method in brief: as §1

[7] = test system: NCI-H520
Method in brief: as §1

[8] = test system: LXF-289
Method in brief: as §1

[9] = test system: PC-14
Method in brief: as §1

[10] = test system: NCI-H322M
Method in brief: as §1

[11] = test system: NCI-H460
Method in brief: as §1

[12] = test system: NCI-H596
Method in brief: as §1

[13] = test system: RERF-LC-KJ
Method in brief: as §1

[14] = test system: NCI-H1792
Method in brief: as §1

[15] = test system: NCI-H2347
Method in brief: as §1

[16] = test system: NCI-H1651
Method in brief: as §1

[17] = test system: NCI-H3122
Method in brief: as §1

[18] = test system: NCI-H661
Method in brief: as §1

[19] = test system: NCI-H1755
Method in brief: as §1

[20] = test system: SW 900
Method in brief: as §1

[21] = test system: NCI-H441
Method in brief: as §1

Structure (SMILES): O=c1cc(-c2cccc3c2Sc2ccccc2S3)oc(N2CCOCC2)c1 + O=C(c1cc(Cc2n[nH]c(=O)c3ccccc23)ccc1F)N1CCN(C(=O)C2CC2)CC1 [Olaparib] (partner 8 µM)
- relative viability ([1]; first compound 0.08 µM): 0.615
- relative viability ([1]; first compound 0.253 µM): 0.621
- relative viability ([1]; first compound 0.8 µM): 0.612
- relative viability ([1]; first compound 2.53 µM): 0.723
- relative viability ([1]; first compound 8 µM): 0.576
- relative viability ([2]; first compound 0.08 µM): 0.765
- relative viability ([2]; first compound 0.253 µM): 0.776
- relative viability ([2]; first compound 0.8 µM): 0.873
- relative viability ([2]; first compound 2.53 µM): 0.736
- relative viability ([2]; first compound 8 µM): 0.71
- relative viability ([3]; first compound 0.08 µM): 0.64
- relative viability ([3]; first compound 0.253 µM): 0.679
- relative viability ([3]; first compound 2.53 µM): 0.615
- relative viability ([3]; first compound 8 µM): 0.68
- relative viability ([4]; first compound 0.08 µM): 0.756
- relative viability ([4]; first compound 0.253 µM): 0.892
- relative viability ([4]; first compound 0.8 µM): 0.708
- relative viability ([4]; first compound 2.53 µM): 0.705
- relative viability ([4]; first compound 8 µM): 0.467
- relative viability ([5]; first compound 0.08 µM): 0.801
- relative viability ([5]; first compound 0.253 µM): 0.916
- relative viability ([5]; first compound 0.8 µM): 0.65
- relative viability ([5]; first compound 2.53 µM): 0.717
- relative viability ([5]; first compound 8 µM): 0.573
- relative viability ([6]; first compound 0.08 µM): 0.425
- relative viability ([6]; first compound 0.253 µM): 0.266
- relative viability ([6]; first compound 0.8 µM): 0.296
- relative viability ([6]; first compound 2.53 µM): 0.305
- relative viability ([6]; first compound 8 µM): 0.226
- relative viability ([7]; first compound 0.08 µM): 0.391
- relative viability ([7]; first compound 0.253 µM): 0.321
- relative viability ([7]; first compound 0.8 µM): 0.439
- relative viability ([7]; first compound 2.53 µM): 0.322
- relative viability ([7]; first compound 8 µM): 0.339
- relative viability ([8]; first compound 0.08 µM): 1.17
- relative viability ([8]; first compound 0.253 µM): 1.36
- relative viability ([8]; first compound 0.8 µM): 1.18
- relative viability ([8]; first compound 2.53 µM): 1.11
- relative viability ([8]; first compound 8 µM): 1.21
- relative viability ([9]; first compound 0.08 µM): 0.232
- relative viability ([9]; first compound 0.253 µM): 0.214
- relative viability ([9]; first compound 0.8 µM): 0.237
- relative viability ([9]; first compound 2.53 µM): 0.169
- relative viability ([9]; first compound 8 µM): 0.165
- relative viability ([10]; first compound 0.08 µM): 0.523
- relative viability ([10]; first compound 0.253 µM): 0.751
- relative viability ([10]; first compound 0.8 µM): 0.746
- relative viability ([10]; first compound 2.53 µM): 0.811
- relative viability ([10]; first compound 8 µM): 0.729
- relative viability ([11]; first compound 0.08 µM): 0.513
- relative viability ([11]; first compound 0.253 µM): 0.343
- relative viability ([11]; first compound 0.8 µM): 0.454
- relative viability ([11]; first compound 2.53 µM): 0.451
- relative viability ([11]; first compound 8 µM): 0.542
- relative viability ([12]; first compound 0.08 µM): 0.664
- relative viability ([12]; first compound 0.253 µM): 0.631
- relative viability ([12]; first compound 0.8 µM): 0.504
- relative viability ([12]; first compound 2.53 µM): 0.587
- relative viability ([12]; first compound 8 µM): 0.585
- relative viability ([13]; first compound 0.08 µM): 1.08
- relative viability ([13]; first compound 0.253 µM): 1.07
- relative viability ([13]; first compound 0.8 µM): 0.9
- relative viability ([13]; first compound 2.53 µM): 0.977
- relative viability ([13]; first compound 8 µM): 0.843
- relative viability ([14]; first compound 0.08 µM): 0.384
- relative viability ([14]; first compound 0.253 µM): 0.352
- relative viability ([14]; first compound 0.8 µM): 0.341
- relative viability ([14]; first compound 2.53 µM): 0.321
- relative viability ([14]; first compound 8 µM): 0.286
- relative viability ([15]; first compound 0.08 µM): 0.53
- relative viability ([15]; first compound 0.253 µM): 0.561
- relative viability ([15]; first compound 0.8 µM): 0.591
- relative viability ([15]; first compound 2.53 µM): 0.585
- relative viability ([15]; first compound 8 µM): 0.638
- relative viability ([16]; first compound 0.08 µM): 0.166
- relative viability ([16]; first compound 0.253 µM): 0.175
- relative viability ([16]; first compound 0.8 µM): 0.184
- relative viability ([16]; first compound 2.53 µM): 0.168
- relative viability ([16]; first compound 8 µM): 0.176
- relative viability ([17]; first compound 0.08 µM): 0.658
- relative viability ([17]; first compound 0.253 µM): 0.745
- relative viability ([17]; first compound 0.8 µM): 0.584
- relative viability ([17]; first compound 2.53 µM): 0.604
- relative viability ([17]; first compound 8 µM): 0.63
- relative viability ([18]; first compound 0.08 µM): 0.809
- relative viability ([18]; first compound 0.253 µM): 0.808
- relative viability ([18]; first compound 0.8 µM): 0.76
- relative viability ([18]; first compound 2.53 µM): 0.777
- relative viability ([18]; first compound 8 µM): 0.712
- relative viability ([19]; first compound 0.08 µM): 0.843
- relative viability ([19]; first compound 0.253 µM): 0.998
- relative viability ([19]; first compound 0.8 µM): 0.846
- relative viability ([19]; first compound 2.53 µM): 0.884
- relative viability ([19]; first compound 8 µM): 0.91
- relative viability ([20]; first compound 0.253 µM): 0.999
- relative viability ([20]; first compound 0.8 µM): 0.824
- relative viability ([20]; first compound 2.53 µM): 0.702
- relative viability ([20]; first compound 8 µM): 0.773
- relative viability ([21]; first compound 0.08 µM): 0.603
- relative viability ([21]; first compound 0.253 µM): 0.708
- relative viability ([21]; first compound 0.8 µM): 0.518
- relative viability ([21]; first compound 2.53 µM): 0.461
- relative viability ([21]; first compound 8 µM): 0.432
